Experimental findings from patent US11091515B2, “Polypeptide derived from CAP1 and pharmaceutical composition comprising same as effective ingredient” (Seoul National University Hospital, priority 2017, dated 2021) are described below.

The target in series [1] is T1, binding of resistin and CAP1 (Homo sapiens, UniProt Q9HD89).
T1 construct: host or cells: CAP1: endogenous, THP-1 cell lysate
T1 sequence (Q9HD89 19-108): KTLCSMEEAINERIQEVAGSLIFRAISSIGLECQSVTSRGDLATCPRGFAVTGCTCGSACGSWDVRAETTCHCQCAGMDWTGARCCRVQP
Put plainly: In vitro pull down assay of mFc-hResistin with CAP1 from THP-1 cell lysates (western blot with CAP1 antibody). As to conditions: for inhibition of binding of resistin and CAP1: each peptide at 50 μM, mFC-hResistin 1 μg/ml. The protocol:
THP-1 cells were lysed with lysis buffer (20 mM Tris pH 7.5, 150 mM NaCl, 1% Triton X-100, 0.25% sodium deoxycholate, 1 mM EDTA, 1 Mm NaF, 1 mM Na3VO4, and, protease inhibitor cocktail) to extract proteins. mFc-hResistin (0.5 ug) protein and VS_peptide (SEQ ID NO: 2) at 10 μM, 100 μM, and 500 μM were added to the extracted THP-1 protein (500 μg), followed by incubation at 4° C. overnight. mFC beads (20 μl) were added, and the protein complexes were pulled down at 4° C. for 3 hours, and then washed three times with lysis buffer. Then, SDS-PAGE sample buffer containing β-mercaptoethanol was added, followed by boiling at 100° C. for 5 minutes, and then a supernatant was obtained through centrifugation. It was investigated by western blotting using the hCAP1 antibody and mFc-HRP antibody whether the binding of hCAP1 and mFc-hResistin was inhibited by VS_peptide. Specifically, THP-1 cell lysates were treated with 1 μg/ml of mFC-hResistin, treated with VS_peptide (SEQ ID NO: 2) at 10 μM, 100 μM, and 500 μM each, and then pulled down using Fc beads. The proteins bound to beads were separated by SDS-PAGE, and subjected to western blotting using the CAP1 antibody. THP-1 cell lysates were treated with mFC-hResistin (1 μg/ml) and each of the peptides of SEQ ID NOS: 1 to 7 at 50 μM each, and pulled down using Fc beads. Thereafter, the proteins bound to Fc beads were separated by SDS-PAGE, and then subjected to western blotting using the CAP1 antibody.
A general note: A western blot detects proteins with antibodies after separation by electrophoresis.

Series [2] has as its system AMPK (phosphorylation of AMPK and ACC, LDLR expression). As to the kind of experiment: AMPK activity by western blot in HepG2 cells treated with AICAR and resistin. The format is cell-based. The conditions noted are these: peptide 50 μM, compared with addition of only resistin. The protocol:
To investigate the effect of VS_peptide (SEQ ID NO: 2) on AMPK activity, AMPK phosphorylation was compared between the addition of VS_peptide (SEQ ID NO: 2) and the addition of AA_peptide (SEQ ID NO: 3). To investigate the effect of VS_peptide (SEQ ID NO: 2) on AMPK activity, HepG2 cells were treated with AICAR to activate AMPK and treated with resistin, and the cells were treated with VS_peptide (SEQ ID NO: 2) and AA_peptide (SEQ ID NO: 3) at 50 μM each. The western blotting was performed to investigate AMPK activity in HepG2 cells through the phosphorylation of AMPK, the phosphorylation of ACC, which is a substrate of AMPK, and the expression level of LDLR.

The test system of series [3] is NF-κB (p65 phosphorylation). As to the kind of experiment: NF-κB activity by p65 phosphorylation western blot in resistin-treated THP-1 cells. The format is cell-based, human. The protocol: To investigate the effect of VS_peptide (SEQ ID NO: 2) on NF-κB activity, p65 phosphorylation was compared between the addition of VS_peptide (SEQ ID NO: 2) and the addition of AA_peptide (SEQ ID NO: 3). THP-1 cells were treated with resistin to activate NF-κB, and VS_peptide (SEQ ID NO: 2) and AA_peptide (SEQ ID NO: 3) were added, and then western blotting using the p-p65 antibody was performed for NF-κB activity.

Series [4] deals with T2, binding of resistin and CAP1 in THP-1 cells (Homo sapiens, UniProt Q9HD89).
T2 construct: endogenous in cells; host or cells: THP-1 cells (CAP1 endogenous)
T2 sequence (Q9HD89 19-108): T1 sequence (Q9HD89 19-108)
As to the kind of experiment: Immunoprecipitation of resistin/CAP1 from treated THP-1 cells. In kind it is cell-based. The conditions noted are these: THP-1 cells treated with resistin and peptide for 12 hours. The protocol: THP-1 cells were treated with resistin or resistin and a peptide for 12 hours, and then lysed with lysis buffer (20 mM Tris pH 7.5, 150 mM NaCl, 1% Triton X-100, 0.25% sodium deoxycholate, 1 mM EDTA, 1mM NaF, 1mM Na3VO4, and protease inhibitor cocktail). The resistin antibody or CAP1 antibody was added to the cell lysates, followed by immunoprecipitation at 4° C. for 3 hours. Mouse IgG was added for control. Protein A/G agarose beads were added to the THP-1 protein and CAP1 antibody complex, followed by incubation, and then through centrifugation, only beads were left and the supernatant was removed. Thereafter, the proteins bound to beads were separated by SDS-PAGE, and after electrophoresis, the gel was transferred onto the polyvinylidene fluoride (PVDF, Millipore), and then blocked with 5% skim milk at room temperature for 30 minutes. […] After the incubation, the membrane was sufficiently washed at least three times for 10 minutes each, and bands were detected using ECL detection kit (Invitrogen, WP20005), and then analyzed. […]

The nature of series [5]: Peptide pharmacokinetics by PET imaging of radioisotope-labeled peptide. In kind it is in vivo, mice. The conditions noted are these: tail vein injection, PET images at 0-48 hours. The protocol: VS_peptide and albumin-conjugated VS_peptide were injected at 36-40 μCi per mouse into the tail vein of C57BL/6 normal mice. After the injection, PET images were acquired at intervals of 0, 1, 2, 4, 24, and 48 hours using the GENISYS[…] machine from Sofie Bioscience. After the image acquisition, pharmacokinetic data were obtained by monoexponential fitting using the image analysis program Amide.
To increase drug delivery efficiency and drug effect duration of VS_peptide (SEQ ID NO: 2), albumin was bound to the peptide. VS_peptide (SEQ ID NO: 2) and albumin-conjugated VS_peptide (SEQ ID NO: 2) were labeled with a radioisotope, and then injected at 36-40 uCi each into the tail vein of male mice aged 8 weeks. PET images were acquired at intervals of 0, 1, 2, 4, 24, and 48 hours, and kinetics of the peptide in the body were observed.

The test system of the next series is MDA-MB-231 cells. Put plainly: Cell migration analysis of resistin-treated breast cancer cells. The format is cell-based, human. As to conditions: MDA-MB-231, resistin 50 ng/ml, 30 μM and 50 μM, compared with AA_peptide. The protocol: MDA-MB-231 cells were suspended in DMEM medium (0.1% FBS), and then the suspension was added at a concentration of 1×10^5 cell/ml per well to uniformly spread throughout the upper chamber of 6-well Transwell. In the lower chamber, each of 50 μM VS_peptide (SEQ ID NO: 2) and AA_peptide (SEQ ID NO: 3) was mixed with DMEM medium (0.1% FBS), and resistin was added at 100 ng/ml. Thereafter, the cells were incubated in an incubator at 37° C. in 5% CO2 for 24 hours. The cells penetrating the Transwell were stained using Crystal violet staining, and then quantified using the Image J program.
MDA-MB-231 cells were suspended in DMEM medium, and then placed in 24-well plates at a concentration of 1×10^5 cell/ml per well. After 50 ng/ml of resistin was placed in each well, VS_peptide (SEQ ID NO: 2) and AA_peptide (SEQ ID NO: 3) were placed at 30 μM and 50 μM, respectively. Thereafter, the cells were incubated in an incubator at 37° C. and 5% CO2 for 6-15 hours. Thereafter, cell migration after 6 hours and 15 hours was observed using a microscope.

Series [6] concerns the target T3, binding of resistin and CAP1 (rhCAP1, mFc-hResistin) (Homo sapiens, UniProt Q9HD89).
T3 sequence (Q9HD89 19-108): T1 sequence (Q9HD89 19-108)
As to the kind of experiment: Competitive ELISA, mFc-hResistin binding to plate-coated rhCAP1. The protocol: Each well of a 96-well plate were coated with hCAP1 protein at a concentration of 2.5 μg/ml for 12 hours (overnight) at room temperature. Each well was washed two times with phosphate buffered saline (PBS, pH7.4). Each well was blocked with a blocking buffer containing 3% BAS at room temperature for 1 hour. The blocking buffer containing 3% BSA was mixed with 5 ug/ml mFc-hResistin protein and VS_peptide [SEQ ID NO: 2] at various concentrations (10 uM, 30 uM, 100 uM), followed by pre-incubation at room temperature for 1 hour. After the blocking solution was removed from the 96-well plate, 100 μl of the pre-incubated mixture of mFc-hResistin protein and VS_peptide (SEQ ID NO: 2) was dispensed in each well, followed by incubation at room temperature for 2 hours. Upon the completion of the incubation, each well was washed two times with PBS. After the anti-mouse-Fc-HRP antibody was diluted in a blocking buffer containing 3% BSA at 1:1000, 100 μl of the diluted antibody was dispensed in each well, followed by incubation at room temperature for 1 hour. Upon the completion of the incubation, each well was washed two times with PBS. […] After 100 μl of a stop solution was dispensed in each well, and the absorbance was measured at 450 nm using an ELISA reader. […] The resistin bound to the HRP-conjugated mFc antibody was measured by ELISA at an absorbance of 450 nm.
On the technique in general: In an ELISA, binding on a coated surface is turned into a signal by an enzyme label.

Where no end group is shown, it is not given here. Where only a bound is given, the exact number is not on record here.

In the case of “AAAAGAAAAAAATSSGSDES (Synthetic AAA peptide) [Proline rich regions and VS replaced with A]”, the “inhibition of binding of resistin and CAP1” value in series [1] was “allowed the strongest binding of resistin and CAP1”.

On to “AAAAGPPPPPVSTSSGSDES (Synthetic pro1A peptide) [Proline rich-1 region replaced with A]”, for which the “inhibition of binding of resistin and CAP1” value in series [1] is “inhibited the binding of resistin and CAP1 at similar levels to the VS_peptide”.

As for “GPPPPPVSTS (Synthetic pep10 peptide) [Shortened peptide based on VS and proline rich-1]”, the “inhibition of binding of resistin and CAP1” value in series [1] is “inhibited the binding of resistin and CAP1 at similar levels to the VS_peptide”.

Consider “PPPPGAAAAAVSTSSGSDES (Synthetic pro2A peptide) [Proline rich-2 region replaced with A]”, for which, in series [1], the “inhibition of binding of resistin and CAP1” value is “inhibited the binding of resistin and CAP1 at similar levels to the VS_peptide”.

With “PPPPGPPPPPAATSSGSDES (Synthetic AA peptide) [AA_peptide, VS replaced with AA; used as control peptide, reference compound]”, in series [2], the “expression level of LDLR” value is reported as “similar”, the “phosphorylation of ACC” value was “not increased” and the “phosphorylation of AMPK” value is recorded as “not increased”. For the same sequence, the “inhibition of binding of resistin and CAP1” value in series [1] is on record as “failed to inhibit”. The “p65 phosphorylation induced by resistin” value in series [3] is on record as “not inhibited”.

Regarding PPPPGPPPPPVSTSSGSDES [VS_peptide], the “binding of resistin and CAP1 in cells (bands in IP/western blot)” value in series [4] is on record as “no bands”. Besides, in series [2], the “expression level of LDLR” value was “increased”, the “phosphorylation of ACC” value is reported as “increased” and the “phosphorylation of AMPK” value is given as “increased”. In addition, the “inhibition of binding of resistin and CAP1” value in series [1] is on record as “effectively inhibited”. The “amount of CAP1 binding to resistin” value in series [1] (peptide at 10, 100 and 500 μM, dose-dependent) was “reduced”. Moreover, in series [5], the “time the administered medicine remains in the body” value is at most 4 h. Also, the “amount of cell migration” value with MDA-MB-231 cells is “smaller”. In addition, in series [6] (addition of peptide vs non-addition, 10, 30, 100 uM, dose-dependent), the “OD value (450 nm) of resistin bound to CAP1” value is reported as “decreased”. In series [6] (peptide at 100 μM, read-out: inhibitory effect on binding of resistin and CAP1), the inhibition at 100 µM was about 25%. For the same sequence, the “p65 phosphorylation induced by resistin” value in series [3] is “inhibited”.
